Laboratory results: patent publication US10774064B2 (Cadent Therapeutics, Inc., priority 2016, dated 2020)

What follows are molecules tested against T1, small-conductance Ca2+-activated K+ channels (SK channels, subtype 2) (Homo sapiens, UniProt Q9H2S1) (assay: whole-cell patch-clamp of ionic current through SK2 channels in HEK293 cells (SC100)). Conditions: concentration that increases the basal current by 100%; HEK293 cells expressing SK2 channels.
T1 construct: expressed in transfected cells; host or cells: HEK293
Format: cell-based
Procedure, shortened: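 SC100, the concentration doubling basal current (a 100% increase), was taken from SK2 currents recorded by whole-cell patch-clamp in SK2-expressing HEK293 cells.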

| SMILES | SC100 |
| --- | --- |
| Cc1cc(C)n(-c2nc(NC3CCC(F)(F)CC3)cc(OCc3cnn(C)n3)n2)n1 [Compound 191, N-(4,4-difluorocyclohexyl)-2-(3,5-dimethyl-1H-pyrazol-1-yl)-6-((2-methyl-2H-1,2,3-triazol-4-yl)methoxy)pyrimidin-4-amine] | ++ (++ means 200 nM-1000 nM) |
| Cc1cc(C)n(-c2nc(NC3CCC(F)(F)CC3)cc(N3CCNC(C(N)=O)C3)n2)n1 (stereo not shown) [Compound 100, 4-(6-((4,4-difluorocyclohexyl)amino)-2-(3,5-dimethyl-1H-pyrazol-1-yl)pyrimidin-4-yl)piperazine-2-carboxamide] | + (+ means >1 uM) |
| CC1CN(c2cc(NC3CCC(F)(F)CC3)nc(-n3ccc(CF)n3)n2)CC(C)O1 (stereo not shown) [Compound 294, N-(4,4-difluorocyclohexyl)-6-(2,6-dimethylmorpholino)-2-(3-(fluoromethyl)-1H-pyrazol-1-yl)pyrimidin-4-amine] | ++ (++ means 200 nM-1000 nM) |
| Cc1cc(C)n(-c2nc(NC3CCC(F)(F)CC3)cc(C(C)(C)O)n2)n1 [Compound 152, 2-(6-((4,4-difluorocyclohexyl)amino)-2-(3,5-dimethyl-1H-pyrazol-1-yl)pyrimidin-4-yl)propan-2-ol] | + (+ means >1 uM) |
| Cc1cc(NC2CCC(F)(F)CC2)nc(-c2nc(C(F)F)cs2)n1 [Compound 277, N-(4,4-difluorocyclohexyl)-2-(4-(difluoromethyl)thiazol-2-yl)-6-methylpyrimidin-4-amine] | ++ (++ means 200 nM-1000 nM) |
| COC(=O)N1CC(Oc2cc(NC3CCC(F)(F)CC3)nc(-n3ccc(CF)n3)n2)C1 [Compound 291, methyl 3-((6-((4,4-difluorocyclohexyl)amino)-2-(3-(fluoromethyl)-1H-pyrazol-1-yl)pyrimidin-4-yl)oxy)azetidine-1-carboxylate] | ++ (++ means 200 nM-1000 nM) |
| Cc1cc(C)n(-c2cc(OCc3cn(C)nn3)cc(NC3CCC(F)(F)CC3)n2)n1 [Compound 244, N-(4,4-difluorocyclohexyl)-6-(3,5-dimethyl-1H-pyrazol-1-yl)-4-((l-methyl-1H-1,2,3-triazol-4-yl)methoxy)pyridin-2-amine] | ++ (++ means 200 nM-1000 nM) |
| COc1cccc(-c2nc(C)cc(NC3CCC(F)(F)CC3)n2)n1 [Compound 219, N-(4,4-difluorocyclohexyl)-2-(6-methoxypyridin-2-yl)-6-methylpyrimidin-4-amine] | + (+ means >1 uM) |
| Cc1cc(C)n(-c2cc(C(C)(C)O)cc(NC3CCC(F)(F)CC3)n2)n1 [Compound 206, 2-(2-((4,4-difluorocyclohexyl)amino)-6-(3,5-dimethyl-1H-pyrazol-1-yl)pyridin-4-yl)propan-2-ol] | + (+ means >1 uM) |
| CC(=O)N1CCN(c2cc(NC3CCC(F)(F)CC3)nc(-n3nc(C)cc3C)c2)CC1 [Compound 134, 1-(4-(2-((4,4-difluorocyclohexyl)amino)-6-(3,5-dimethyl-1H-pyrazol-1-yl)pyridin-4-yl)piperazin-1-yl)ethan-1-one] | ++ (++ means 200 nM-1000 nM) |
| Cc1cc(C)n(-c2cc(NC(C(N)=O)C(C)C)cc(NC3CCC(F)(F)CC3)n2)n1 (stereo not shown) [Compound 239, 2-((2-((4,4-difluorocyclohexyl)amino)-6-(3,5-dimethyl-1H-pyrazol-1-yl)pyridin-4-yl)amino)-3-methylbutanamide] | ++ (++ means 200 nM-1000 nM) |

More lines, now with the values ahead:

| SC100 | SMILES |
| --- | --- |
| + (+ means >1 uM) | Cc1cc(C)n(-c2cc(O)cc(NC3CCC(F)(F)CC3)n2)n1 [Compound 276, 2-((4,4-difluorocyclohexyl)amino)-6-(3,5-dimethyl-1H-pyrazol-1-yl)pyridin-4-ol] |
| ++ (++ means 200 nM-1000 nM) | Cc1cc(C)n(-c2cc(CN)cc(NC3CCC(F)(F)CC3)n2)n1 [Compound 195, 4-(aminomethyl)-N-(4,4-difluorocyclohexyl)-6-(3,5-dimethyl-1H-pyrazol-1-yl)pyridin-2-amine] |
| + (+ means >1 uM) | Cc1cc(NC2CCC(F)(F)CC2)nc(-n2ccc(C(C)(C)O)n2)c1 [Compound 265, 2-(1-(6-((4,4-difluorocyclohexyl)amino)-4-methylpyridin-2-yl)-1H-pyrazol-3-yl)propan-2-ol] |
| ++ (++ means 200 nM-1000 nM) | Cc1cc(NC2CCC(F)(F)CC2)nc(-n2ccc(C(F)F)n2)n1 [Compound 216] |

Same assay, conditions: whole-cell patch-clamp, HEK293 cells expressing SK2 channels; concentration that increases the basal current by 100%

| SMILES | SC100 (μM) |
| --- | --- |
| Cc1ccn(-c2nc(N3CCCCC3)cc(N3CCOC(CO)C3)n2)n1 (stereo not shown) [IN10882-072-P1, (4-(2-(3-methyl-1H-pyrazol-1-yl)-6-(piperidin-1-yl)pyrimidin-4-yl)morpholin-2-yl) methanol] | + (+ means >1 uM) |
| Cn1cnc(COc2cc(NC3CCC(F)(F)CC3)nc(-c3nc(CF)cs3)n2)n1 [NSSy5624, N-(4,4-difluorocyclohexyl)-2-(4-(fluoromethyl)thiazol-2-yl)-6-((1-methyl-1H-1,2,4-triazol-3-yl)methoxy)pyrimidin-4-amine] | + (+ means >1 uM) |
| CC(=O)N1CCN(c2cc(NC3CCC(F)(F)CC3)nc(-c3nc(C)cs3)n2)CC1 [NSSy6055] | +++ (+++ means <200 nM) |
| Cc1csc(-c2cc(OC3CCC(F)(F)CC3)nc(N3CCOCC3)c2)n1 [NSSy6374, 4-(6-((4,4-difluorocyclohexyl)oxy)-4-(4-methylthiazol-2-yl)pyridin-2-yl) morpholine] | + (+ means >1 uM) |
| Cc1ccn(-c2nc(COc3ccc(C#N)cn3)cc(NC3CCC(F)(F)CC3)n2)n1 [IN11053-013-P1] | ++ (++ means 200 nM-1000 nM) |
| COc1cc(NC2CCC(C)(C)CC2)nc(-n2ccc(C)n2)n1 [IN11055-078-P1, N-(4,4-dimethylcyclohexyl)-6-methoxy-2-(3-methyl-1H-pyrazol-1-yl)pyrimidin-4-amine] | + (+ means >1 uM) |
| Cc1cc(C)n(-c2nc(NC3CCC(F)CC3)cc(N3CCOCC3)n2)n1 (stereo not shown) [IN10963-049-P1] | ++ (++ means 200 nM-1000 nM) |
| Cc1csc(-c2cc(N3CCOCC3)cc(NC3CCC(F)CC3)n2)n1 (stereo not shown) [NSSy5688] | ++ (++ means 200 nM-1000 nM) |
| Cc1ccn(-c2nc(NC(C)(C)C)cc(C(C)O)n2)n1 (stereo not shown) [IN10880-065-P1] | + (+ means >1 uM) |
| COC(=O)N1CC(Oc2ccnc(-c3nc(C)cs3)n2)C1 [NSSy6057] | + (+ means >1 uM) |
| Cc1nc(NC2CCC(F)(F)CC2)nc(-n2nc(C)c(Br)c2C)c1Br [NSSy6736, 5-bromo-4-(4-bromo-3,5-dimethyl-1H-pyrazol-1-yl)-N-(4,4-difluorocyclohexyl)-6-methylpyrimidin-2-amine] | + (+ means >1 uM) |
| Cc1csc(-c2nc(NC3CCC(F)(F)CC3)cc(N(C)C3COC3)n2)n1 [IN10882-043-P1] | + (+ means >1 uM) |
| CC(=O)c1cc(NC2CCC(F)(F)CC2)nc(-n2ccc(C)n2)n1 [IN10876-041-P2] | + (+ means >1 uM) |
| Cc1csc(-c2nc(C)c(F)c(NC3CCC(F)(F)CC3)n2)n1 [IN11106-077-P1, N-(4,4-difluorocyclohexyl)-5-fluoro-6-methyl-2-(4-methylthiazol-2-yl)pyrimidin-4-amine] | ++ (++ means 200 nM-1000 nM) |
| Cc1ccn(-c2cc3c(c(N4CCOCC4)n2)CCN3)n1 [IN11130-005-P1, 4-(6-(3-methyl-1H-pyrazol-1-yl)-2,3-dihydro-1H-pyrrolo[3,2-c]pyridin-4-yl)morpholine] | + (+ means >1 uM) |
| Cc1csc(-c2cc(C(C)O)cc(NC3CCC(F)(F)CC3)n2)n1 (stereo not shown) [IN11130-051-P1, 1-(2-((4,4-difluorocyclohexyl)amino)-6-(4-methylthiazol-2-yl)pyridin-4-yl) ethan-1-ol] | +++ (+++ means <200 nM) |
| Cc1ccn(-c2cc(N3CCOCC3)cc([C@@H](O)c3ccc(F)cc3)n2)n1 [NSSy6513, (S)-(4-fluorophenyl)(6-(3-methyl-1H-pyrazol-1-yl)-4-morpholinopyridin-2-yl)methanol] | + (+ means >1 uM) |
| Cc1ccc(-c2nc(NC3CCC(F)(F)CC3)cc(N3CCOCC3)n2)[nH]1 [IN11196-081-P1, N-(4,4-difluorocyclohexyl)-2-(5-methyl-1H-pyrrol-2-yl)-6-morpholino pyrimidin-4-amine] | + (+ means >1 uM) |
| Cc1csc(-c2cc(-c3nc(C)cs3)nc(NC3CCC(F)(F)CC3)n2)n1 [NSSy6704, N-(4,4-difluorocyclohexyl)-4,6-bis(4-methylthiazol-2-yl)pyrimidin-2-amine] | + (+ means >1 uM) |

Next, values leading:

| SC100 (μM) | SMILES |
| --- | --- |
| ++ (++ means 200 nM-1000 nM) | CNc1cc(-n2ccc(C)n2)nc(NC2CCC(F)(F)CC2)n1 [NSSy6688] |
| + (+ means >1 uM) | Cc1ccn(-c2nc(NC3CCC(F)(F)CC3)cc(N3C[C@@H]4C[C@H]3CO4)n2)n1 [NSSy6394] |
| +++ (+++ means <200 nM) | Cc1ccc(OCc2cc(NC3CCC(F)(F)CC3)nc(-n3ccc(C)n3)c2)nn1 [NSSy5828, N-(4,4-difluorocyclohexyl)-6-(3-methyl-1H-pyrazol-1-yl)-4-(((6-methylpyridazin-3-yl)oxy)methyl)pyridin-2-amine] |
| + (+ means >1 uM) | Cc1cc(NC2CCC(F)(F)CC2)nc(-n2ccc(=O)[nH]2)n1 [IN11079-067-P1, 1-(4-((4,4-difluorocyclohexyl)amino)-6-methylpyrimidin-2-yl)-1H-pyrazol-3-ol] |
| +++ (+++ means <200 nM) | COC(=O)N1CCC(c2cc(NC3CCC(F)(F)CC3)nc(-n3ccc(C)n3)c2)CC1 [NSSy6885] |
| ++ (++ means 200 nM-1000 nM) | CNCc1cc(NC2CCC(F)(F)CC2)nc(-n2ccc(C)n2)c1 [IN11039-026-P1] |
| ++ (++ means 200 nM-1000 nM) | CC(C)C(=O)NCc1cc(NC2CCC(F)(F)CC2)nc(-n2ccc(CF)n2)c1 [NSSy5620, N-((2-((4,4-difluorocyclohexyl)amino)-6-(3-(fluoromethyl)-1H-pyrazol-1-yl)pyridin-4-yl)methyl)isobutyramide] |
| + (+ means >1 uM) | COc1cc(NC2CCC(F)(F)CC2)nc(-n2nc(C)cc2C)c1 [IN11054-038-P1] |
| ++ (++ means 200 nM-1000 nM) | Cc1ccn(-c2cc(OCc3ncnn3C)cc(NC3CCC(F)(F)CC3)n2)n1 [NSSy5737] |
